Assay results as given in BigSolDB 2.1.

N#CCc1ccc([N+](=O)[O-])cc1
solubility (mole fraction)
Conditions	in 1,4-dioxane	in 2-butanone	in acetic acid	in acetone	in acetonitrile	in cyclohexane	in ethanol	in ethyl acetate	in ethylbenzene
278.15 K	–	0.0458	–	0.057	0.0361	–	0.00183	0.122	0.00564
283.15 K	–	0.0534	–	0.0658	0.0437	9.17e-05	0.00223	0.13	0.00685
288.15 K	0.0461	0.0617	–	0.0753	0.0519	0.000111	0.00279	0.14	0.00784
293.15 K	0.0567	0.0717	0.014	0.0859	0.0628	0.000134	0.00352	0.149	–
298.15 K	0.0715	0.0828	0.0166	0.0974	0.0749	0.000166	0.0043	0.159	–
303.15 K	0.0888	0.0953	0.0195	0.111	0.0899	0.000209	0.00536	0.17	–
308.15 K	0.109	0.109	0.0231	0.126	0.105	0.000258	0.00654	0.182	–
313.15 K	0.134	0.126	0.0272	0.143	0.124	0.000327	0.00788	0.196	–
318.15 K	0.161	0.144	0.0319	0.162	0.145	0.000409	0.00986	0.21	–
323.15 K	0.193	0.166	0.0375	0.183	0.169	0.000505	0.0122	0.228	–
328.15 K	0.232	0.189	0.0438	0.206	0.196	0.000639	0.0149	0.246	–
333.15 K	0.283	0.216	0.0516	–	0.228	0.000822	0.0178	0.268	–
